Laboratory results from PubChem BioAssay AID330 (DTP/NCI, 2004).
“And” between values parts separate entries of the source, which are not always exact repeats. Equal entries are not always repeated. Toxic doses and inconclusive results are not listed.

Test system: P388 leukemia ip, CD2F1 mice, survival T/C
Experiment: NCI In Vivo Anticancer Drug Screen. Data for tumor model P388 Leukemia (intraperitoneal) in CD2F1 (CDF1) mice
Details: endpoint: median survival time, higher = longer survival
How it was run: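 Mice carrying the transplanted tumor received test compound or vehicle. Survival was recorded in each group, and the value is the treated-group measurement divided by that of the vehicle-treated control group.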

[1] = dose: 50.0 mg/kg/injection, schedule: Q01DX009 (ip), vehicle: saline
[2] = dose: 100.0 mg/kg/injection, schedule: Q01DX009 (ip), vehicle: saline
[3] = dose: 200.0 mg/kg/injection, schedule: Q01DX009 (ip), vehicle: saline
[4] = dose: 12.5 mg/kg/injection, schedule: Q01DX005 (ip), vehicle: Klucel (hydroxypropylcellulose) (HPC)
[5] = dose: 25.0 mg/kg/injection, schedule: Q01DX005 (ip), vehicle: Klucel (hydroxypropylcellulose) (HPC)
[6] = dose: 50.0 mg/kg/injection, schedule: Q01DX005 (ip), vehicle: Klucel (hydroxypropylcellulose) (HPC)
[7] = dose: 100.0 mg/kg/injection, schedule: Q01DX001 (ip), vehicle: saline with Tween-80
[8] = dose: 200.0 mg/kg/injection, schedule: Q01DX001 (ip), vehicle: saline with Tween-80
[9] = dose: 400.0 mg/kg/injection, schedule: Q01DX001 (ip), vehicle: saline with Tween-80
[10] = dose: 60.0 mg/kg/injection, schedule: Q01DX005 (ip), vehicle: Klucel (hydroxypropylcellulose) (HPC)
[11] = dose: 120.0 mg/kg/injection, schedule: Q01DX005 (ip), vehicle: Klucel (hydroxypropylcellulose) (HPC)
[12] = dose: 50.0 mg/kg/injection, schedule: Q01DX001 (ip), vehicle: saline with Tween-80
[13] = dose: 60.0 mg/kg/injection, schedule: Q01DX005 (ip), vehicle: saline with Tween-80
[14] = dose: 120.0 mg/kg/injection, schedule: Q01DX005 (ip), vehicle: saline with Tween-80
[15] = dose: 240.0 mg/kg/injection, schedule: Q01DX005 (ip), vehicle: saline with Tween-80
[16] = dose: 25.0 mg/kg/injection, schedule: Q01DX009 (ip), vehicle: saline with Tween-80
[17] = dose: 100.0 mg/kg/injection, schedule: Q01DX005 (ip), vehicle: Klucel (hydroxypropylcellulose) (HPC)

**Q.** CC1=NC(c2ccccn2)=NNC(c2ccccn2)=C1c1ccccc1 was tested. Which T/C (dose: 25.0 mg/kg/injection, schedule: Q01DX009 (ip), vehicle: other) did it give?
**A.** 113 % of control

**Q.** What about the T/C (dose: 50.0 mg/kg/injection, schedule: Q01DX009 (ip), vehicle: other) of the same compound?
**A.** 116 % of control

**Q.** And the T/C (dose: 100.0 mg/kg/injection, schedule: Q01DX009 (ip), vehicle: other)?
**A.** 116 % of control

**Q.** What about the T/C (dose: 200.0 mg/kg/injection, schedule: Q01DX009 (ip), vehicle: other) of the same compound?
**A.** 114 % of control

**Q.** And the T/C (dose: 400.0 mg/kg/injection, schedule: Q01DX009 (ip), vehicle: other)?
**A.** 120 % of control

**Q.** What does the source list for CC(=O)NC(Cc1c[nH]c2ccccc12)C(=O)Oc1ccc([N+](=O)[O-])cc1 (stereo not drawn)?
**A.** T/C [1]: 95 % of control; T/C [2]: 98 % of control; T/C [3]: 92 % of control

**Q.** What does the source list for CC(C)C[C@H](O)C(=O)O?
**A.** T/C (dose: 50.0 mg/kg/injection, schedule: Q04DX003 (ip), vehicle: saline): 100 % of control; T/C (dose: 100.0 mg/kg/injection, schedule: Q04DX003 (ip), vehicle: saline): 100 % of control; T/C (dose: 200.0 mg/kg/injection, schedule: Q04DX003 (ip), vehicle: saline): 100 % of control

**Q.** For Nc1nc(N)c(CCc2ccccc2)c(N)n1, which T/C [4] is on record?
**A.** 97 % of control

**Q.** What about the T/C [5] of the same compound?
**A.** 103 % of control

**Q.** And the T/C [6]?
**A.** 92 % of control and 97 % of control

**Q.** With Cn1nncc1NS(=O)(=O)c1ccc([N+](=O)[O-])cc1 as the compound, how does the T/C [7] read?
**A.** 107 % of control

**Q.** And the T/C [8]?
**A.** 115 % of control

**Q.** What about the T/C [9] of the same compound?
**A.** 98 % of control

**Q.** Which results are given for Cc1ccccc1-n1c(SCC(=O)NC(=O)Nc2cccc(Cl)c2)nc2c(Br)cc(Br)cc2c1=O?
**A.** T/C [10]: 99 % of control; T/C [11]: 101 % of control; T/C (dose: 240.0 mg/kg/injection, schedule: Q01DX005 (ip), vehicle: Klucel (hydroxypropylcellulose) (HPC)): 87 % of control

**Q.** For O=c1c2cocc2c(O)c2n1Cc1cc3ccccc3nc1-2, which T/C [12] is on record?
**A.** 100 % of control and 101 % of control

**Q.** And the T/C [7]?
**A.** 99 % of control and 110 % of control and 120 % of control

**Q.** And the T/C [8]?
**A.** 99 % of control and 110 % of control and 120 % of control

**Q.** And the T/C [9]?
**A.** 100 % of control and 102 % of control and 112 % of control

**Q.** Which T/C [13] does the source give for O=S(=O)(Nc1cc(C(F)(F)F)ccc1Cl)c1ccc(F)cc1 here?
**A.** 104 % of control

**Q.** What about the T/C [14] of the same compound?
**A.** 96 % of control

**Q.** What about the T/C [15] of the same compound?
**A.** 100 % of control

**Q.** Which results are given for O=C(/C=C/c1ccc(OCc2ccccc2)cc1)c1cccc(Cl)c1?
**A.** T/C (dose: 6.25 mg/kg/injection, schedule: Q01DX009 (ip), vehicle: saline with Tween-80): 95 % of control; T/C (dose: 12.5 mg/kg/injection, schedule: Q01DX009 (ip), vehicle: saline with Tween-80): 95 % of control; T/C [16]: 93 % of control

**Q.** For COC(=O)C#CCO, which T/C (dose: 6.25 mg/kg/injection, schedule: Q01DX009 (ip), vehicle: water) is on record?
**A.** 103 % of control

**Q.** What about the T/C (dose: 12.5 mg/kg/injection, schedule: Q01DX009 (ip), vehicle: water) of the same compound?
**A.** 112 % of control and 94 % of control

**Q.** What about the T/C (dose: 25.0 mg/kg/injection, schedule: Q01DX009 (ip), vehicle: water) of the same compound?
**A.** 112 % of control and 120 % of control

**Q.** What about the T/C (dose: 50.0 mg/kg/injection, schedule: Q01DX009 (ip), vehicle: water) of the same compound?
**A.** 112 % of control and 122 % of control

**Q.** For CN1CCN(CCCN2c3ccccc3Sc3ccc(C(F)(F)F)cc32)CC1, which T/C [16] is on record?
**A.** 109 % of control

**Q.** And the T/C (dose: 50.0 mg/kg/injection, schedule: Q01DX009 (ip), vehicle: saline with Tween-80)?
**A.** 118 % of control

**Q.** What about the T/C (dose: 66.0 mg/kg/injection, schedule: Q04DX003 (ip), vehicle: saline with Tween-80) of the same compound?
**A.** 163 % of control

**Q.** What about the T/C (dose: 100.0 mg/kg/injection, schedule: Q04DX003 (ip), vehicle: saline with Tween-80) of the same compound?
**A.** 150 % of control

**Q.** Which results are given for NC(CC(=O)O)C(F)(F)F (stereo not drawn)?
**A.** T/C [13]: 99 % of control; T/C [14]: 100 % of control; T/C [15]: 102 % of control

**Q.** What does the source list for CN(C)c1ccc(-c2cccc[n+]2C)cc1?
**A.** T/C (dose: 1.5 mg/kg/injection, schedule: Q01DX009 (ip), vehicle: saline): 103 % of control; T/C (dose: 3.0 mg/kg/injection, schedule: Q01DX009 (ip), vehicle: saline): 108 % of control; T/C (dose: 6.0 mg/kg/injection, schedule: Q01DX009 (ip), vehicle: saline): 109 % of control

**Q.** Which T/C (dose: 6.25 mg/kg/injection, schedule: Q04DX003 (ip), vehicle: distilled water + Tween-80) does the source give for COc1cc2c[n+]3c(c(C)c2cc1OC)-c1cc2c(cc1CC3)OCO2 here?
**A.** 106 % of control

**Q.** And the T/C (dose: 12.5 mg/kg/injection, schedule: Q04DX003 (ip), vehicle: distilled water + Tween-80)?
**A.** 113 % of control

**Q.** And the T/C (dose: 25.0 mg/kg/injection, schedule: Q04DX003 (ip), vehicle: distilled water + Tween-80)?
**A.** 116 % of control

**Q.** And the T/C (dose: 50.0 mg/kg/injection, schedule: Q04DX003 (ip), vehicle: distilled water + Tween-80)?
**A.** 108 % of control

**Q.** Which T/C [13] does the source give for CC1=NN(c2ccccc2)C(=O)/C1=C\c1ccc([N+](=O)[O-])cc1 here?
**A.** 104 % of control

**Q.** What about the T/C [14] of the same compound?
**A.** 101 % of control

**Q.** And the T/C [15]?
**A.** 103 % of control

**Q.** Which results are given for NC(c1ccccc1)S(=O)(=O)O (stereo not drawn)?
**A.** T/C (dose: 25.0 mg/kg/injection, schedule: Q01DX009 (ip), vehicle: saline): 121 % of control; T/C [1]: 121 % of control; T/C (dose: 66.7 mg/kg/injection, schedule: Q01DX009 (ip), vehicle: saline with Tween-80): 92 % of control; T/C (dose: 100.0 mg/kg/injection, schedule: Q01DX001 (ip), vehicle: saline): 100 % of control; T/C (dose: 100.0 mg/kg/injection, schedule: Q01DX009 (ip), vehicle: saline with Tween-80): 88 % of control; T/C [2]: 122 % of control; T/C (dose: 150.0 mg/kg/injection, schedule: Q01DX009 (ip), vehicle: saline with Tween-80): 91 % of control; T/C (dose: 200.0 mg/kg/injection, schedule: Q01DX001 (ip), vehicle: saline): 100 % of control; T/C [3]: 121 % of control; T/C (dose: 400.0 mg/kg/injection, schedule: Q01DX001 (ip), vehicle: saline): 100 % of control

**Q.** Which results are given for CCCn1c(O)c(C(=O)CC)sc1=S?
**A.** T/C [10]: 97 % of control; T/C [11]: 99 % of control

**Q.** Which results are given for NC1=NC(c2ccc(O)cc2O)c2[nH]cnc2N1 (stereo not drawn)?
**A.** T/C [1]: 99 % of control; T/C [2]: 100 % of control; T/C [3]: 97 % of control

**Q.** Which results are given for COc1ccc(C=C(C(=O)CCN(C)C)C(=O)CCN(C)C)cc1?
**A.** T/C (dose: 50.0 mg/kg/injection, schedule: Q01DX005 (ip), vehicle: saline): 105 % of control; T/C (dose: 100.0 mg/kg/injection, schedule: Q01DX005 (ip), vehicle: saline): 100 % of control

**Q.** Which results are given for O=C(Nc1ccc(NC2=NCCN2)cc1)c1cc(Cl)cc(C(=O)Nc2ccc(NC3=NCCN3)cc2)c1?
**A.** T/C [4]: 98 % of control; T/C [5]: 102 % of control

**Q.** For COc1ccc2c(C)cc(NNC(N)=S)nc2c1, which T/C [6] is on record?
**A.** 104 % of control and 107 % of control

**Q.** What about the T/C [17] of the same compound?
**A.** 111 % of control and 120 % of control

**Q.** Which results are given for C[C@@H]1C[C@H]2OC(=O)[C@@]3(C)CCC[C@@](C)([C@@H]23)[C@@]1(O)CCc1ccoc1?
**A.** T/C [4]: 108 % of control; T/C [5]: 105 % of control; T/C [6]: 106 % of control; T/C [17]: 97 % of control

**Q.** What does the source list for O=P(c1ccccc1)(c1ccccc1)c1ccccc1.O=P(c1ccccc1)(c1ccccc1)c1ccccc1.O=P(c1ccccc1)(c1ccccc1)c1ccccc1.O=P(c1ccccc1)(c1ccccc1)c1ccccc1.[O-][Cl+3]([O-])([O-])O.[Zn+2]?
**A.** T/C [12]: 104 % of control; T/C [7]: 103 % of control and 90 % of control

**Q.** For CN(C)CCCN1C(=O)C2CCC(C)(C1=O)C2(C)C (stereo not drawn), which T/C (dose: 50.0 mg/kg/injection, schedule: Q01DX005 (ip), vehicle: saline with Tween-80) is on record?
**A.** 100 % of control

**Q.** What about the T/C (dose: 100.0 mg/kg/injection, schedule: Q01DX005 (ip), vehicle: saline with Tween-80) of the same compound?
**A.** 101 % of control

**Q.** CCOC(=O)NC1CCC2(C)CCCCC2C1 (stereo not drawn) was tested. Which T/C [1] did it give?
**A.** 100 % of control

**Q.** What about the T/C [2] of the same compound?
**A.** 97 % of control

**Q.** And the T/C [3]?
**A.** 109 % of control
